The target of this assay is GHS-R (Homo sapiens, UniProt Q92847). Description: cell based assay of GHS-R antagonist/agonist activity. The conditions noted are these: GHS-R antagonist Ki and/or agonist EC50 class. Further details: key: A refers to a compound having antagonist activity with Ki<100 nM in a cell based assay; B refers to a compound having agonist activity with EC50<100 nM in a cell based assay; C refers to a compound having antagonist activity of Ki>100 nM and <1500 nM in a cell based assay; D refers to a compound having antagonist activity with Ki, <100 nM and agonist activity with EC50<100 nM in a cell-based assay; E refers to other exemplary compounds. How it is done:
Cell-Based Activity Assays. For example, the ability of the compound to modulate accumulation of a second messenger signaling component downstream of GHS-R can be evaluated. For example, inositol phosphates (IP), as a result of Gq signaling in a mammalian cell, e.g., a Cos-7 cells. Other tissue culture cells, Xenopus oocytes, and primary cells can also be used.
Phosphatidylinositol turnover assay. One day after transfection COS-7 cells are incubated for 24 hours with 5 μCi of [^3H]-myo-inositol in 1 ml medium supplemented with 10% fetal calf serum, 2 mM glutamine and 0.01 mg/ml gentamicin per well. Cells are then washed twice in buffer, 20 mM HEPES, pH 7.4, supplemented with 140 mM NaCl, 5 mM KCl, 1 mM MgSO4, 1 mM CaCl2, mM glucose, 0.05% (w/v) bovine serum; and incubated in 0.5 ml buffer supplemented with 10 mM LiCl at 37° C. for 30 min. For some assays, it is also useful to incubate the cells with adenosine deaminase ADA (200 U/mg, Boehringer Mannheim, Germany) for 30 min in a concentration of 1 U/ml.
After incubation with the compound of interest for 45 min at 37° C., cells are extracted with 10% ice-cold perchloric acid and placed on ice for 30 min. The resulting supernatants are neutralized with KOH in HEPES buffer, and [^3H]-inositol phosphate is purified on Bio-Rad AG 1-X8 anion exchange resin as described. Assays can be run in duplicate, triplicate, etc.
Other second messenger assays. Another second messenger that can be evaluated is Ca^2+. Ca^2+ mobilization can be evaluated using a calcium sensitive detector, such as aequorin protein or a dye, e.g., FURA-2. In an exemplary assay, calcium mobilization is evaluated in a recombinant cell that expresses GHS-R and aequorin.
Gene expression assay. HEK293 cells (30 000 cells/well) seeded in 96-well plates are transiently transfected with a mixture of pFA2-CREB and pFR-Luc reporter plasmid (PathDetect™ CREB trans-Reporting System, Stratagene) and nucleic acid encoding GHS. One day after transfection, cells are treated with the compound of interest in an assay volume of 100 μl medium for 5 hrs. After treatment, cells are cultured in low serum (2.5%). After the incubation period, the assay is ended by washing the cells twice with PBS and adding 100 μl luciferase assay reagent (LucLite™, Packard Bioscience). Luminescence is measured (e.g., as relative light units (RLU)) using in a luminometer such as the TopCounter™ (Packard Bioscience) for 5 sec.
IC50 and EC50 values can be determined by nonlinear regression, e.g., using the Prism 3.0 software (GraphPad Software, San Diego).

Sequence of GHS-R (Q92847 whole entry, species assumed): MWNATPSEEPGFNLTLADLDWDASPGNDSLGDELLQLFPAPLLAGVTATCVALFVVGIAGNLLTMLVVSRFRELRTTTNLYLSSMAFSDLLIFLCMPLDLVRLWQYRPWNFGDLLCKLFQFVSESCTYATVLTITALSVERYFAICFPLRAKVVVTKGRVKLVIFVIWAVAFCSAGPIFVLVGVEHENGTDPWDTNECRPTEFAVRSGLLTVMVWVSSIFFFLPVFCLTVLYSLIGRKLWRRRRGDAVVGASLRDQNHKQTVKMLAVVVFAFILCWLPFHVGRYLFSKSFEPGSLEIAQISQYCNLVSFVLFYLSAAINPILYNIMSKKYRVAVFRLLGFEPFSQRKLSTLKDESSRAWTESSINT

Consider `CC(=O)OCC(=O)N[C@H](COCc1ccccc1)C(=O)N1CCC2(CC1)CN(S(C)(=O)=O)c1ccccc12` [Compound 34], for which the Activity entry is “C (C refers to a compound having antagonist activity of Ki>100 nM and <1500 nM in a cell based assay)”.

As to `CC(C)N1CCC(C(=O)N[C@H](COCc2ccccc2)C(=O)N2CCC3(CC2)CN(S(C)(=O)=O)c2ccccc23)CC1` [Compound 110], the Activity result is recorded as “E”.

Regarding `CC(C)(C)OC(=O)N[C@H](COCc1ccccc1)C(=O)N1CCC2(CC1)CNc1ccccc12` [Compound 56], the Activity result was “E”.

With `C[C@H](C(=O)N[C@H](COCc1ccccc1)C(=O)N1CCC2(CC1)CN(S(C)(=O)=O)c1ccccc12)N(C)C` [Compound 14], the Activity result is recorded as “A (A refers to a compound having antagonist activity with Ki<100 nM in a cell based assay)”.

In the case of `CC(C)N1CCC(C(=O)N[C@H](COCc2ccccc2)C(=O)N2CCC3(CC2)CN(S(C)(=O)=O)c2ccccc23)CC1` [Compound 19], the Activity entry was “C (C refers to a compound having antagonist activity of Ki>100 nM and <1500 nM in a cell based assay)”.

Consider `CN(C)C[C@H]1CCC[C@@H](C(=O)N[C@H](COCc2ccccc2)C(=O)N2CCC3(CC2)CN(S(C)(=O)=O)c2ccccc23)C1` [Compound 10], for which the Activity result was “D (D refers to a compound having antagonist activity with Ki, <100 nM and agonist activity with EC50<100 nM in a cell-based assay)”.

As for `CN1CCC=C(C(=O)N[C@H](COCc2ccccc2)C(=O)N2CCC3(CC2)CN(S(C)(=O)=O)c2ccccc23)C1` [Compound 7], the Activity entry is “D (D refers to a compound having antagonist activity with Ki, <100 nM and agonist activity with EC50<100 nM in a cell-based assay)”.

On to `COCC(=O)N[C@H](COCc1ccccc1)C(=O)N1CCC2(CC1)CN(S(C)(=O)=O)c1ccccc12` [Compound 31], for which the Activity result is “C (C refers to a compound having antagonist activity of Ki>100 nM and <1500 nM in a cell based assay)”.

With `CS(=O)(=O)N1CC2(CCN(C(=O)[C@@H](COCc3ccccc3)NC(=O)[C@@H]3CCC[C@H](CN)C3)CC2)c2ccccc21` [Compound 114], the Activity result was “E”.

Turning to `CN1CCC[C@H]1C(=O)N[C@H](COCc1ccccc1)C(=O)N1CCC2(CC1)CN(S(C)(=O)=O)c1ccccc12` [Compound 24], the Activity entry was “C (C refers to a compound having antagonist activity of Ki>100 nM and <1500 nM in a cell based assay)”.

As to `CN1CCC(C(=O)N[C@H](Cc2ccccc2)C(=O)N2CCC3(CC2)CN(S(C)(=O)=O)c2ccccc23)CC1` [Compound 45], the Activity entry is “C (C refers to a compound having antagonist activity of Ki>100 nM and <1500 nM in a cell based assay)”.

As to `C[C@@H](C(=O)N[C@H](COCc1ccccc1)C(=O)N1CCC2(CC1)CN(S(C)(=O)=O)c1ccccc12)N(C)C` [Compound 81], the Activity entry is listed as “E”.

With `CCN1CCC(C(=O)N[C@H](COCc2ccccc2)C(=O)N2CCC3(CC2)CN(S(C)(=O)=O)c2ccccc23)CC1` [Compound 27], the Activity result is “C (C refers to a compound having antagonist activity of Ki>100 nM and <1500 nM in a cell based assay)”.

Consider `CC(C)(C)NC(=S)N[C@H](COCc1ccccc1)C(=O)N1CCC2(CC1)CN(S(C)(=O)=O)c1ccccc12` [Compound 85], for which the Activity entry is “E”.

On to `CC(C)NCCS(=O)(=O)N[C@H](COCc1ccccc1)C(=O)N1CCC2(CC1)CN(S(C)(=O)=O)c1ccccc12` [Compound 146], for which the Activity result was “C (C refers to a compound having antagonist activity of Ki>100 nM and <1500 nM in a cell based assay)”.

On to `CC(C)(C)OC(=O)N1CCC(CNC(COCc2ccccc2)C(=O)N2CCC3(CC2)CN(S(C)(=O)=O)c2ccccc23)CC1` (stereo not drawn) [Compound 103], for which the Activity entry is recorded as “E”.

As to `CS(=O)(=O)N1CC2(CCN(C(=O)[C@@H](COCc3ccccc3)N3CCCS3(=O)=O)CC2)c2ccccc21` [Compound 158], the Activity result was “E”.

Turning to `CN(C)Cc1ccc(C(=O)N[C@H](COCc2ccccc2)C(=O)N2CCC3(CC2)CN(S(C)(=O)=O)c2ccccc23)cc1` [Compound 40], the Activity result is “C (C refers to a compound having antagonist activity of Ki>100 nM and <1500 nM in a cell based assay)”.

For `COCC(=O)N1CC2(CCN(C(=O)[C@@H](COCc3ccccc3)NC(=O)CN(C)C)CC2)c2ccccc21` [Compound 73], the Activity result is listed as “E”.

Turning to `CN1CCC(CN(C)[C@H](COCc2ccccc2)C(=O)N2CCC3(CC2)CN(S(C)(=O)=O)c2ccccc23)CC1.Cl.Cl` [Compound 22], the Activity entry is “C (C refers to a compound having antagonist activity of Ki>100 nM and <1500 nM in a cell based assay)”.

On to `C[C@H](N)C(=O)N[C@H](COCc1ccccc1)C(=O)N1CCC2(CC1)CN(S(C)(=O)=O)c1ccccc12` [Compound 78], for which the Activity entry was “E”.

For the compound `CC(=O)N[C@H](COCc1ccccc1)C(=O)N1CCC2(CC1)CN(S(C)(=O)=O)c1ccccc12` [Compound 51], the Activity entry is given as “E”.

`COC(=O)CC(=O)N1CC2(CCN(C(=O)[C@@H](COCc3ccccc3)NC(=O)OC(C)(C)C)CC2)c2ccccc21` [Compound 60]: the Activity entry is listed as “E”.

Regarding `CN1CCN(CC(=O)N[C@H](COCc2ccccc2)C(=O)N2CCC3(CC2)CN(S(C)(=O)=O)c2ccccc23)CC1` [Compound 91], the Activity entry is “E”.

Consider `CC(=O)OCC(=O)N1CC2(CCN(C(=O)[C@@H](COCc3ccccc3)NC(=O)OC(C)(C)C)CC2)c2ccccc21` [Compound 59], for which the Activity entry is “E”.

Consider `COCC(=O)N1CC2(CCN(C(=O)[C@@H](COCc3ccccc3)NC(=O)OC(C)(C)C)CC2)c2ccccc21` [Compound 57], for which the Activity result was “E”.

Consider `CN(C)CCC(=O)N[C@H](COCc1ccccc1)C(=O)N1CCC2(CC1)CN(S(C)(=O)=O)c1ccccc12` [Compound 89], for which the Activity result is “E”.

`CN1CCN(C(=O)N[C@H](COCc2ccccc2)C(=O)N2CCC3(CC2)CN(S(C)(=O)=O)c2ccccc23)CC1` [Compound 93]: the Activity result was “E”.

For the compound `C[C@@H](OCc1ccccc1)C(NC(=O)C1CCN(C)CC1)C(=O)N1CCC2(CC1)CN(S(C)(=O)=O)c1ccccc12` (stereo partly drawn) [Compound 137], the Activity result is “E”.

Regarding `CS(=O)(=O)N1CC2(CCN(C(=O)[C@@H](COCc3ccccc3)NC(=O)C[C@@H]3CCCN3)CC2)c2ccccc21` [Compound 23], the Activity result was “C (C refers to a compound having antagonist activity of Ki>100 nM and <1500 nM in a cell based assay)”.

On to `C=CS(=O)(=O)N[C@H](COCc1ccccc1)C(=O)N1CCC2(CC1)CN(S(C)(=O)=O)c1ccccc12` [Compound 147], for which the Activity entry was “E”.

Regarding `COc1cccc(C(=O)N2CC3(CCN(C(=O)[C@@H](COCc4ccccc4)NC(=O)OC(C)(C)C)CC3)c3ccccc32)c1` [Compound 58], the Activity entry is “E”.

In the case of `CS(=O)(=O)N1CC2(CCN(C(=O)[C@@H](COCc3ccccc3)NC(=O)C3CNC3)CC2)c2ccccc21` [Compound 36], the Activity result was “C (C refers to a compound having antagonist activity of Ki>100 nM and <1500 nM in a cell based assay)”.

Take `CCN(CC)CCC(=O)N[C@H](COCc1ccccc1)C(=O)N1CCC2(CC1)CN(S(C)(=O)=O)c1ccccc12` [Compound 111]: the Activity entry is reported as “E”.

With `CNC(C)(C)C(=O)N[C@H](COCc1ccccc1)C(=O)N1CCC2(CC1)CN(S(C)(=O)=O)c1ccccc12` [Compound 132], the Activity entry is “B (B refers to a compound having agonist activity with EC50<100 nM in a cell based assay)”.

Turning to `CC(C)CCN1CC=C(C(=O)N[C@H](COCc2ccccc2)C(=O)N2CCC3(CC2)CN(S(C)(=O)=O)c2ccccc23)CC1` [Compound 102], the Activity entry was “E”.

Consider `CN(C)CC(=O)NC(C)(C)C(=O)N[C@H](COCc1ccccc1)C(=O)N1CCC2(CC1)CN(S(C)(=O)=O)c1ccccc12` [Compound 127], for which the Activity entry is “B (B refers to a compound having agonist activity with EC50<100 nM in a cell based assay)”.

With `CN1CCC(C(=O)N[C@H](CCc2ccccc2)C(=O)N2CCC3(CC2)CN(S(C)(=O)=O)c2ccccc23)CC1` [Compound 136], the Activity result is on record as “E”.

Take `CS(=O)(=O)N1CC2(CCN(C(=O)[C@@H](COCc3ccccc3)NC(=O)c3cccc(CN)c3)CC2)c2ccccc21` [Compound 122]: the Activity entry is reported as “E”.
